The nature of the data set: Humidity (wettability/hygroscopicity) test, Chinese Pharmacopoeia 2010. The note with it: Guidelines for Drug Wetting Test, Chinese Pharmacopoeia 2010 Edition 2 Appendix XIX J; Table 2. The class given is physicochemical.

Here are results for 3 compounds from patent publication WO2016169030A1, “Fumarate and crystals of pyridylamine compound” (priority 2015, dated 2016).

Molecules are shown by their SMILES.

`CC(=O)Nc1ncc(-c2cnn(C3CCNCC3)c2)cc1O[C@H](C)c1c(Cl)ccc(F)c1Cl.O=C(O)/C=C/C(=O)O` [Fumarate] registered a Wet weight gain of 0.80%.

On to `CC(=O)Nc1ncc(-c2cnn(C3CCNCC3)c2)cc1O[C@H](C)c1c(Cl)ccc(F)c1Cl` [Compound of formula (II), N-Acetyl-3-[(1R)-1-(2,6-dichloro-3-fluorophenyl)ethoxy]-5-[1-(4-piperidinyl)-1H-pyrazol-4-yl]-2-pyridinamine], for which the Wet weight gain turned out to be 61.75%. The result for `O=C(O)CC(O)C(=O)O` (stereo not drawn) [Malate] reads 7.83%.
